According to patent US20120074014A1, “PRODUCT TYPICALLY BASED ON SALT OF PEROXYMONOSULFURIC ACID AND SUITABLE FOR MEDICINAL USAGE, AND ASSOCIATED PRODUCT FABRICATION” (LuTran Industries, Inc., priority 2010, published 2012):
Like-named read-outs stand apart in the source and are kept apart here.

Legend:
[1] = system: osteoarthritis; assay: Example B: case treatment of osteoarthritis, complete-body immersion; type: in vivo, human; details: earlier treatment tried by the patient; patient report
Description: (§1) Given below are examples of using the medicinal drug of type I/II for treating allergic rhinitis, osteoarthritis, gouty arthritis, bronchitis, hemorrhoids, urticaria, toothache, tinea pedis, acute viral nasopharyngitis, herpes simplex, dandruff, itching, bromhidrosis, and vaginitis. The formulation of the drug of type I/II used in these examples was the preferred formulation, mentioned above, in which the drug was formed with potassium hydrogen peroxymonosulfate as the active oxygen-releasing material, sodium chloride as the inorganic halide, sodium hexametaphosphate as the alkali metal phosphate, sulfamic acid, malic acid as the non-reducing organic acid, and sodium dodecylbenzene sulfonate as the surfactant at approximately the typical mass percentages mentioned above. A formulation approximating this formulation is commercially available in the product Virkon. This formulation of the drug of type I/II is referred to below as the “Medicine”. […]

[2] = system: vaginitis; assay: Example N: case treatment of vaginitis, vaginal immersion; type: in vivo, human; details: earlier treatment tried by the patient; patient report
Description: as §1

[3] = system: dandruff; assay: Example K: case treatment of dandruff, scalp scrubbing; type: in vivo, human; details: earlier treatment tried by the patient; (some of) these decreased the amount of dandruff; patient report
Description: Given below are examples of using the medicinal drug of type I/II for treating allergic rhinitis, osteoarthritis, gouty arthritis, bronchitis, hemorrhoids, urticaria, toothache, tinea pedis, acute viral nasopharyngitis, herpes simplex, dandruff, itching, bromhidrosis, and vaginitis. […] A formulation approximating this formulation is commercially available in the product Virkon. This formulation of the drug of type I/II is referred to below as the “Medicine”.
The Medicine for each person infected with allergic rhinitis, osteoarthritis, gouty arthritis, bronchitis, hemorrhoids, urticaria, toothache, tinea pedis, acute viral nasopharyngitis, herpes simplex, dandruff, itching, bromhidrosis, and vaginitis is provided for topical, intranasal, oral, or/and injection administration 1-12 times per day, preferably 1-8 times per day, more preferably 1-6 times per day, typically 1-4 times per day, in liquid form at a dosage of 0.00001-5%, preferably 0.001-3%, more preferably 0.1-2%, typically 0.5-1%, for a time of contact of 1 minute-12 hours, preferably 1 minute-6 hours, more preferably 1 minute-2 hours, typically 1-30 minutes.
The Medicine was provided to […] as a 1% solution for topical administration by scrubbing the Medicine into their scalp and hair for 5 minutes and then washing their scalp and hair. The […] reported that they administered the Medicine to themself in the foregoing manner 4 times a week for 2 weeks.

[4] = system: coxsackie virus; details: Sporkenbach, U.S. Pat. No. 4,404,191; cited from earlier work
[5] = system: adenovirus; details: Sporkenbach, U.S. Pat. No. 4,404,191; cited from earlier work
[6] = system: poliovirus; details: Sporkenbach, U.S. Pat. No. 4,404,191; cited from earlier work
[7] = system: simian vacuolating virus 40; details: Sporkenbach, U.S. Pat. No. 4,404,191; cited from earlier work
[8] = cited from earlier work

## N[C@H]1C(O)O[C@H](CO)[C@@H](O)[C@@H]1O (some centres unmarked) [glucosamine]
[1]
  relief of osteoarthritis by earlier treatments: without effective relief

## C[C@]12CCC(=O)C=C1CC[C@@H]1[C@@H]2[C@@H](O)C[C@@]2(C)[C@H]1CC[C@]2(O)C(=O)CO [hydrocortisone]
[2]
  success of earlier treatments for vaginitis: without significant success

## CC(=O)N1CCN(c2ccc(OCC3COC(Cn4ccnc4)(c4ccc(Cl)cc4Cl)O3)cc2)CC1 (centres unmarked) [ketoconazole]
[3]
  dandruff after earlier treatments: still visible

## O=S(=O)([O-])OO.[K+] [potassium hydrogen peroxymonosulfate]
[4]
  inactivation of coxsackie virus: inactivated
[5]
  inactivation of adenovirus: inactivated
[6]
  inactivation of poliovirus: inactivated
[7]
  inactivation of simian vacuolating virus 40: inactivated

## S=[Se]=S [selenium sulfide]
[3]
  dandruff after earlier treatments: still visible

## potassium monopersulfate triple salt
[8]; anhydrous solid, reported in Tufano
  loss of active oxygen content per month: roughly 1%
[8]; solutions (solvent presumably high-purity water), Tufano and Durante
  loss of active oxygen content per month: 3-5%

## zinc pyrithione
[3]
  dandruff after earlier treatments: still visible
